The values that follow come from US6034067A, “Serine protease inhibitors” (Akzo Nobel, N.V., priority 1996, dated 2000).

Each structure is given as a SMILES string.

In the assay the target is T1, Human thrombin (Homo sapiens, UniProt P00734).
T1 construct: purchased Centraal Laboratorium voor Bloedtransfusie, Amsterdam, The Netherlands
Kind of assay: Anti-thrombin assay (hydrolysis of chromogenic substrate S-2238 by thrombin). It counts as biochemical. As to conditions: final concentration causing 50% inhibition of the maximum absorbance of the blank; S-2238 substrate, TNP buffer pH 7.4, 37° C., absorbance at 405 nm. As for the experimental part: Thrombin (Factor IIa) is a factor in the coagulation cascade.
At room temperature 0.075 ml and 0.025 ml test compound or reference compound solutions or vehicle are alternately pipetted into the wells of a microtiter plate and these solutions are diluted with 0.115 ml and 0.0165 ml TNP buffer, respectively. […] The plate is incubated (with shaking for 30 s) at 37° C.
All data are collected in an IBM personal computer using LOTUS-MEASURE.
For the compound `N=C(N)NC(=O)CCC(NC(=O)[C@@H]1CCCN1C(=O)[C@@H](CC1CCCCC1)NCC(=O)O)C(=O)c1nccs1` (stereo partly drawn) [Example 2, HOOC-CH2 -D-Cha-Pro-Glu(guanadine)-(2-thiazolyl)], half-maximal inhibition (IC50) was put at 34 nM.

`CCS(=O)(=O)N[C@H](CC1CCCCC1)C(=O)N1CCC[C@H]1C(=O)NC(CCC(=O)NC(=N)N)C(=O)c1nccs1` (stereo partly drawn) [Example 4, EtSO2 -D-Cha-Pro-Glu(guanidine)-(2-thiazolyl)]: the IC50 – broadly, the concentration at which inhibition is half-maximal – worked out at 2590 nM.

Compound `CN[C@H](CC1CCCCC1)C(=O)N1CCC[C@H]1C(=O)NC(CCC(=O)NC(=N)N)C(=O)c1nccs1` (stereo partly drawn) [Example 6, N-Me-D-Cha-Pro-Glu(guanidine)-(2-thiazolyl)] returned an IC50 of 320 nM.
